Measured values published in PubChem BioAssay (NCI).
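Results reflect a 48-hour exposure of cells in 96-well plates to compound at five concentrations. GI50: concentration for 50% inhibition of growth. TGI is the concentration that stops growth completely.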

Assays:
Test in all cases: NCI-60 cell line screen, 48 h
COLO 205 colon = tested on: COLO 205 colon
K-562 leukemia = tested on: K-562 leukemia
NCI-H460 lung = tested on: NCI-H460 lung
SK-MEL-2 melanoma = tested on: SK-MEL-2 melanoma
SNB-19 CNS = tested on: SNB-19 CNS
SR leukemia = tested on: SR leukemia
TK-10 renal = tested on: TK-10 renal
U251 CNS = tested on: U251 CNS
UACC-257 melanoma = tested on: UACC-257 melanoma
UACC-62 melanoma = tested on: UACC-62 melanoma

| Structure (SMILES) | GI50 (COLO 205 colon) | TGI (COLO 205 colon) | GI50 (K-562 leukemia) | TGI (K-562 leukemia) | GI50 (NCI-H460 lung) | TGI (NCI-H460 lung) | GI50 (SK-MEL-2 melanoma) | TGI (SK-MEL-2 melanoma) | GI50 (SNB-19 CNS) | TGI (SNB-19 CNS) | GI50 (SR leukemia) | TGI (SR leukemia) | GI50 (TK-10 renal) | TGI (TK-10 renal) | GI50 (U251 CNS) | TGI (U251 CNS) | GI50 (UACC-257 melanoma) | TGI (UACC-257 melanoma) | GI50 (UACC-62 melanoma) | TGI (UACC-62 melanoma) |
| --- | --- | --- | --- | --- | --- | --- | --- | --- | --- | --- | --- | --- | --- | --- | --- | --- | --- | --- | --- | --- |
| N#CC(C#N)=C1CCOc2ccc(F)cc21 | 21.7 µM | 67.6 µM | 50.4 µM | > 100 µM | 14.2 µM | 30.4 µM | > 100 µM | > 100 µM | 27.3 µM | 96.1 µM | 12.6 µM | 25.2 µM | 14.1 µM | 33.3 µM | 11.2 µM | 23.2 µM | > 100 µM | > 100 µM | 11.3 µM | 28.9 µM |
| CN(C)CCC(CCN(C)C)=NO | – | > 100 µM | – | > 100 µM | – | > 100 µM | – | > 100 µM | – | > 100 µM | – | – | – | > 100 µM | – | > 100 µM | – | > 100 µM | – | > 100 µM |
| CCOC(=O)C1=C(C)NC2=C(C(=O)N(c3ccccc3)C2c2ccccc2)C1c1ccccc1 (stereo unspecified) | – | 33.5 µM | – | > 100 µM | – | – | – | 33.5 µM | – | – | – | 45.5 µM | – | 45.2 µM | – | 29.3 µM | – | 40.2 µM | – | 26.7 µM |
| C=CC(=O)N1C[C@@H]2CCOc3c(Cl)c(-c4c(O)cccc4F)c(F)c4ncnc(c34)N2C[C@H]1C | 17.6 µM | 35.9 µM | 8.72 µM | > 100 µM | 15.2 µM | 32.1 µM | 14 µM | 28.7 µM | 14.6 µM | 28 µM | – | – | 16.1 µM | 33.3 µM | 15 µM | 36.2 µM | 13 µM | 30.3 µM | 4.17 µM | 18.8 µM |
| O=C(NCCCl)Nc1cccnc1 | – | 51.3 µM | – | > 100 µM | – | – | – | > 100 µM | – | 80.4 µM | – | – | – | 27.7 µM | – | > 100 µM | – | 72.2 µM | – | > 100 µM |
| COc1cc(CC2c3cc(OC)c(OC)cc3CCN2C)ccc1O (stereo unspecified) | – | – | – | > 100 µM | – | > 100 µM | – | > 100 µM | – | > 100 µM | – | – | – | > 100 µM | – | > 100 µM | – | > 100 µM | – | – |
| CCOC(=O)C1=C(C)NC(=O)NC1CN1C(=O)c2ccccc2C1=O (stereo unspecified) | > 100 µM | > 100 µM | > 100 µM | > 100 µM | > 100 µM | > 100 µM | > 100 µM | > 100 µM | > 100 µM | > 100 µM | – | – | > 100 µM | > 100 µM | > 100 µM | > 100 µM | > 100 µM | > 100 µM | > 100 µM | > 100 µM |
| COc1ccc(CCN(CC(=O)N(CC(N)=O)C2CCC[C@@H]2OCc2ccccc2)C(=O)CN(C(=O)CN(CCc2ccc(Cl)cc2)C(=O)CN(C(=O)CN(C)Cc2ccccc2F)[C@H](C)C2CCCCC2)[C@H](C)C2CCCCC2)cc1OC (stereo partly specified) | 0.893 µM | 2.4 µM | 1.61 µM | > 50 µM | 1.94 µM | > 50 µM | 0.946 µM | 2.84 µM | 1.64 µM | > 50 µM | 0.69 µM | 2.23 µM | – | – | 1.98 µM | 17.7 µM | 1.09 µM | 2.68 µM | 1.42 µM | > 50 µM |
